Tests used:
[1] = system: naked oocytes (NO); assay: Agonistic oocyte assay: germinal vesicle breakdown and polar body formation in naked oocytes cultured in Hx-medium; type: cell-based, mice; conditions: 10 mikroM; for mean % GVB / mean % PB: naked oocytes (NO) cultured in vitro for 24 hours in Hx-medium; for mean Relative Effect: naked oocytes (NO), 24 hours, indexed: control = 0, FF-MAS = 100
Experimental: An agonistic oocyte assay can be performed as follows:
Oocytes were obtained from immature female mice (C57BU6J x DBA/2J F1, Bomholtgaard, Denmark) weighing 13-16 grams, that were kept under controlled temperature (20-22° C.), light (lights on 06.00-18.00) and relative humidity (50-70%). The mice received an intra-peritoneal injection of 0.2 ml gonadotropins (Gonal-F, Serono) containing 20 IU FSH and 48 hours later the animals were killed by cervical dislocation.
The ovaries were dissected out and the oocytes were isolated in Hx-medium (see below) under a stereo microscope by manual rupture of the follicles using a pair of 27 gauge needles. Spherical oocytes displaying an intact germinal vesicle (hereinafter designated GV) were divided in cumulus enclosed oocytes (hereinafter designated CEO) and naked oocytes (hereinafter designated NO) and placed in a-minimum essential medium (α-MEM without ribonucleosides, Gibco BRL, Cat. No. 22561) supplemented with 3 mg/ml bovine serum albumin (BSA, Sigma Cat. No. A-7030), 5 mg/ml human serum albumin (HSA, Statens Seruminstitute, Denmark), 0.23 mM pyruvate (Sigma, Cat. No S-8636), 2 mM glutamine (Flow Cat. No. 16-801), 100 IU/ml penicillin and 100 μg/ml streptomycin (Flow, Cat No. 16-700). This medium was supplemented with 3 mM hypoxanthine (Sigma Cat. No. H-9377) and designated Hx-medium.
The oocytes were rinsed three times in Hx-medium and oocytes of uniform size were divided into groups of CEO and NO. CEO and NO were cultured in 4-well multidishes (Nunclon, Denmark) in which each well contained 0.4 ml of Hx-medium. One control well (i.e., 35-45 oocytes cultured in identical medium with no addition of test compound) was always cultured simultaneously with 3 test wells (35-45 oocytes per well supplemented with test compound).
The oocytes were cultured in a humidified atmosphere of 5% CO2 in air for 24 hours at 37° C. By the end of the culture period, the number of oocytes with germinal vesicle (hereinafter designated GV), germinal vesicle breakdown (hereinafter designated GVB) and polar bodies (hereinafter designated PB), respectively, were counted using a stereomicroscope (Wildt, Leica MZ 12). The percentage GVB, defined as percentage of oocytes undergoing GVB per total number of oocytes in that well, was calculated as: % GVB=(number of GVB+number of PB/total number oocytes)×100.
The % PB was defined as percentage of oocytes displaying one extruded polar body per total number of oocytes in that well.
The effect of the tested compounds has been indexed against control level and 4,4-dimethyl-5α-cholesta-8,14,24-trien-3β-ol (hereinafter designated FF-MAS) where controls and FF-MAS are indexed to an effect of 0 and 100, respectively. The relative effect of the tested compound is calculated as follows: Relative effect=((test GVB %−control GVB %)/(FF-MAS GVB %−control GVB %))×100. Results

[2] = system: naked oocytes (NO); conditions: Byskov et al. Nature 374 (1995), 559-562; cited from earlier work

Row | melting point [°C] | Compound | mean % GVB [1] [%] | mean % PB [1] [%] | mean Relative Effect [1] | induction of meiosis in NO in vitro [2]
1 | 130 to 132 | C[C@H](CCC(=O)OC1CCCCC1)[C@H]1CC=C2C3=C(CC[C@@]21C)[C@@]1(C)CC[C@H](O)C(C)(C)[C@@H]1CC3 |  |  |  | 
2 | 118 to 119 | C[C@H](CCC(=O)OCc1ccccc1)[C@H]1CC=C2C3=C(CC[C@@]21C)[C@@]1(C)CC[C@H](O)C(C)(C)[C@@H]1CC3 |  |  |  | 
3 | 156 to 157 | COC(=O)CC[C@@H](C)[C@H]1CC=C2C3=C(CC[C@@]21C)[C@@]1(C)CC[C@H](O)C(C)(C)[C@@H]1CC3 |  |  |  | 
4 |  | C[C@H](CCC(=O)O)[C@H]1CC=C2C3=C(CC[C@@]21C)[C@@]1(C)CC[C@H](O)C(C)(C)[C@@H]1CC3 [Example 4, 3β-Hydroxy-4,4-dimethyl-5α-chola-8,14-dien-24-oic acid] | 10.5 | 3.5 | −10 | 
5 | 171 to 176 | C[C@H](CCC(=O)NC(C)(C)C)[C@H]1CC=C2C3=C(CC[C@@]21C)[C@@]1(C)CC[C@H](O)C(C)(C)[C@@H]1CC3 |  |  |  | 
6 |  | C[C@H](CCC(=O)Nc1ccccc1)[C@H]1CC=C2C3=C(CC[C@@]21C)[C@@]1(C)CC[C@H](O)C(C)(C)[C@@H]1CC3 [Example 10, 3β-Hydroxy-4,4-dimethyl-5α-chola-8,14-dien-24-oic acid-N-phenyl amide] | 10 | 3 | −10 | 
7 |  | CC(C)C(=O)CC[C@@H](C)[C@H]1CC=C2C3=C(CC[C@@]21C)[C@@]1(C)CC[C@H](O)C(C)(C)[C@@H]1CC3 [Example 6, 3β-Hydroxy4,4-dimethyl-5α-cholesta-8,14-dien-24-one] | 88 | 11 | 110 | 
8 |  | C[C@H](CC1CCCCC1)[C@H]1CC=C2C3=C(CC[C@@]21C)[C@@]1(C)CC[C@H](O)C(C)(C)[C@@H]1CC3 [Example 23, (20R), 4,20-Trimethyl-21-(cyclohexyl)-5α-pregna-8,14-dien-3β-ol] | 73.5 | 21.5 | 98 | 
9 | 114 to 115 | C[C@H](CCCOCc1ccccc1)[C@H]1CC=C2C3=C(CC[C@@]21C)[C@@]1(C)CC[C@H](O)C(C)(C)[C@@H]1CC3 |  |  |  | 
10 | 233 to 235 | C[C@H](CCC(N)=O)[C@H]1CC=C2C3=C(CC[C@@]21C)[C@@]1(C)CC[C@H](O)C(C)(C)[C@@H]1CC3 |  |  |  | 
11 | 210 to 213 | C[C@H](CCC(=O)O)[C@H]1CC[C@H]2C3=CC=C4C(C)(C)[C@@H](O)CC[C@]4(C)[C@H]3CC[C@]12C |  |  |  | 
12 | 178 to 180 | C[C@H](CCCNc1ccccc1)[C@H]1CC=C2C3=C(CC[C@@]21C)[C@@]1(C)CC[C@H](O)C(C)(C)[C@@H]1CC3 |  |  |  | 
13 | 188 to 190 | C[C@H](CCCC(C(=O)O)C(=O)O)[C@H]1CC=C2C3=C(CC[C@@]21C)[C@@]1(C)CC[C@H](O)C(C)(C)[C@@H]1CC3 |  |  |  | 
14 | 183 to 185 | CC(=O)CC[C@@H](C)[C@H]1CC=C2C3=C(CC[C@@]21C)[C@@]1(C)CC[C@H](O)C(C)(C)[C@@H]1CC3 |  |  |  | 
15 | 124 to 128 | COC(=O)CC[C@@H](C)[C@H]1CC[C@H]2C3=CC=C4C(C)(C)[C@@H](O)CC[C@]4(C)[C@H]3CC[C@]12C |  |  |  | 
16 |  | CC(C)=CCC[C@@H](C)[C@H]1CC=C2C3=C(CC[C@@]21C)[C@@]1(C)CC[C@H](O)C(C)(C)[C@@H]1CC3 [FF-MAS, 4,4-dimethyl-5α-cholesta-8,14,24-trien-3β-ol, reference compound] | 86.1 | 28.5 | 100 | induce meiosis
17 |  | Cc1ccc(C[C@@H](C)[C@H]2CC=C3C4=C(CC[C@@]32C)[C@@]2(C)CC[C@H](O)C(C)(C)[C@@H]2CC4)cc1 [Example 21, (20R)-4,4,20-Trimethyl-21-(4-methylphenyl)-5α-pregna-8,14-dien-3δ-ol] | 82 | 29.5 | 98 | 
18 |  | C=C(C)CCC[C@@H](C)[C@H]1CC=C2C3=C(CC[C@@]21C)[C@@]1(C)CC[C@H](O)C(C)(C)C1CC3 (stereo partly drawn) [Example 33, 4,4-Dimethylcholest-8,14,25-trien-3β-ol] | 70 | 14.5 | 105 | 
19 | 122 to 124 | CCOC(=O)CC[C@@H](C)[C@H]1CC=C2C3=C(CC[C@@]21C)[C@@]1(C)CC[C@H](O)C(C)(C)[C@@H]1CC3 |  |  |  | 
20 | 219 to 221 | CC(=O)NCCC[C@@H](C)[C@H]1CC=C2C3=C(CC[C@@]21C)[C@@]1(C)CC[C@H](O)C(C)(C)[C@@H]1CC3 |  |  |  | 

Source: US6884796B2, “Meiosis regulating compounds” (NovoNordisk A/S, priority 1998, dated 2005)
